Data published in paper PMC5490399, “Glycosaminoglycan Binding and Non-Endocytic Membrane Translocation of Cell-Permeable Octaarginine Monitored by Real-Time In-Cell NMR Spectroscopy” (Pharmaceuticals, 2017).
Non-standard residues stand in square brackets, D forms with d. Residues, ends and D or L forms follow the SMILES beside them. Phe(4-CF3) = N[C@@H](Cc1ccc(C(F)(F)F)cc1)C(=O)O

How the values were obtained:
Assay type in all cases: cell-based, human
HL60 cells [1] = system: HL60 cells
Description: (§1) One-dimensional in-cell ^19F NMR measurements were carried out at 376.2 MHz by using a JEOL ECA400 NMR spectrometer equipped with a superconducting magnet of 9.4 T. A multinuclear probe (JEOL, NM40T10A/AT) for a 10-mm diameter tube was used. Detailed procedures of the measurement are described elsewhere. Briefly, HL60 cells (the final concentration, 1 × 10^7 cells/mL) were suspended in phosphate-buffered saline (PBS, pH 7.4) at 4 °C and put into a NMR tube. In order to confirm no contribution of energy-dependent endocytosis at 4 °C, the comparative measurement was also performed at 37 °C. To avoid cellular toxicity, the amount of D2O used for the signal lock was decreased to 10%. The sample was gently rotated to prevent the sedimentation of the cells. Field-gradient shimming was applied before the addition of the peptide, to quickly attain the spectral resolution. The measurements started immediately after the thermal equilibrium was attained, 1.5 min after the addition of the ^19F-labeled peptides. […] Cell viability, assessed by the trypan blue staining after the NMR measurement at 4 °C, was 92% ± 1% for ^19F-R8 and 94% ± 1% for ^19F-T6 with respect to the control value, 94% ± 2%. […]
Cell peptide concentrations inside and outside were estimated by using the signal intensities of real-time ^19F NMR difference spectra in Figure 2b. Figure A1 illustrates how peptide concentrations were determined from the ^19F NMR spectra. […]
The concentration of these three components can be evaluated from the signal intensities by integrating the respective peak areas. […] Since the total ^19F-R8 concentration is 80 μM, the concentrations of free, bound to GAG, and membrane components are calculated to be […], 9, and 5 μM, respectively.
Figure A1 Illustration of the signal intensity estimation in the ^19F NMR difference spectrum. […] The concentration of these three components can be evaluated from the signal intensities by integrating the respective peak areas (see text).

HL60 cells [2] = experiment: Steady state 19F NMR after cell fractionation (final distribution); conditions: 19F NMR at 4 °C
Description: In the previous sections, we succeeded in comprehensive observation and quantitative analysis of the non-endocytic translocation of ^19F-R8 to the cell inside. To confirm that ^19F-R8 is actually transferred to cytosol across the cell membrane, the final distribution of ^19F-R8 was evaluated by cell fractionation after equilibrium was attained in real-time NMR measurements. Membrane solubilization and centrifugation techniques were combined in accordance with Scheme 1. First, we examined how much of ^19F-R8 was finally bound to cells. In Figure 7a, the ^19F NMR spectra of ^19F-R8 in the supernatant I is compared with total ^19F-R8 as a control at 4 °C. The ^19F NMR signal intensity of the supernatant I corresponds to ^19F-R8 that is still in a free (unbound) state under equilibrium. […] The value is consistent with the result of the real-time in-cell NMR measurement showing about 65 μM (81%) of ^19F-R8 is remaining in a free state after the equilibrium is attained (Figure 6). Next, to confirm that ^19F-R8 is actually bound to HL60 cell, the cell pellet I was solubilized by lysis buffer containing 1% Triton X-100. After the centrifugation, the supernatant II was subject to ^19F NMR measurement at 4 °C. The spectrum is shown in Figure 7b as Lysate, and 13% of the initial ^19F-R8 was detected.
It is considered that three components of ^19F-R8 are contained in the Lysate. They include ^19F-R8 bound to GAG or cell membrane, and ^19F-R8 in cytosol. We separated these components as the supernatant III and the pellet III by centrifuging the Lysate at 100,000× g. Supernatant III consists of ^19F-R8 in cytosol, and pellet III contains ^19F-R8 bound to GAG or cell membrane (referred as Membrane); see Scheme 1. […] It should be noted that the observed chemical shift of NMR signal in this system is too complicated to understand. For example, the cell solubilization exposes ^19F-R8 to numerous molecules derived from cells. Also, the cytosol fraction was obtained by lyophilization of 50 mL lysis buffer A. This leads to the increased concentrations of components (Triton X-100, Tris-HCl, EDTA, NaCl in lysis buffer A) in the final sample to be measured. The condition of the solvent such as ionic strength and pH affects the chemical shift of ^19F-R8 NMR signal. Thus the integral NMR intensity is useful for the steady state NMR spectra because it is basically proportional to the nuclear concentration.
The amount of ^19F-R8 finally delivered to the cytosol was quantified by ^19F NMR under equilibrium in combination with the cell fractionation using membrane solubilization and centrifugation. The cell fractionation procedures are summarized in Scheme 1. After the real-time ^19F NMR measurement, 4 mL of the sample were centrifuged at 1500× g for 5 min at 4 °C. Pellet I was washed twice with 4 mL of PBS and centrifuged again. Then the 8 mL of supernatant I was collected and subject to ^19F NMR measurement at 4 °C, to quantify free ^19F-R8. Next, 4 mL of lysis buffer A (1% Triton X-100, 50 mM Tris-HCl, 50 mM EDTA, 150 mM NaCl, 10% D2O) was added to pellet I, and left for 15 min on ice to complete the cell membrane solubilization. The solution was centrifuged at 15,000× g for 15 min at 4 °C, to separate pellet II and supernatant II. Then, supernatant II was collected and subjected to ^19F NMR measurement at 4 °C (called Lysate). After measurement, 50 mL of lysis buffer A was added and centrifuged at 100,000× g for 3 h at 4 °C. […]

HL60 cells [3] = conditions: 100 μM
Description: as §1, with “peptides. The final concentrations of ^19F-R8 and ^19F-T6 were 80 μM and 100 μM, respectively, and these were high enough to observe non-endocytic translocation.” for “peptides.”

degradation of peptide in the presence of HL60 cells (integral 19F NMR intensity) (HL60 cells [1]; pH 7.4) | peptide in a free state (supernatant I) under equilibrium (HL60 cells [2]; HL60, after real-time NMR at 4 °C, centrifugation 1500× g, pH 7.4, versus total peptide) [%] | peptide in cytosol fraction (supernatant III) (HL60 cells [2]; Lysate centrifuged at 100,000× g) | peptide in membrane fraction (pellet III) (HL60 cells [2]; Lysate centrifuged at 100,000× g, equilibrium state) | peptide detected in Lysate (supernatant II), of the initial peptide (HL60 cells [2]; pellet I solubilized with 1% Triton X-100 lysis buffer, 15,000× g, pH 7.5) [%] | peptide in DNA and cytoskeleton fraction (pellet II) (HL60 cells [2]; pellet II solubilized) | interaction with HL60 cells (change of 19F NMR and difference spectrum) (HL60 cells [1]) | SMILES | time at which transfer to cytosol was first observed (HL60 cells [1]; HL60, PBS pH 7.4, 4 °C, 80 μM peptide) | Cell viability (HL60 cells [3])
no degradation | 77 | observed in the cytosol fraction | within the experimental error | 13 | not yet detectable | – | CC(=O)N[C@@H](Cc1ccc(C(F)(F)F)cc1)C(=O)N[C@@H](CCCNC(=N)N)C(=O)N[C@@H](CCCNC(=N)N)C(=O)N[C@@H](CCCNC(=N)N)C(=O)N[C@@H](CCCNC(=N)N)C(=O)N[C@@H](CCCNC(=N)N)C(=O)N[C@@H](CCCNC(=N)N)C(=O)N[C@@H](CCCNC(=N)N)C(=O)N[C@@H](CCCNC(=N)N)C(N)=O [^19F-R8] | around 5 min | –
– | – | – | – | – | – | no interaction occurs | CC[C@H](C)[C@H](NC(=O)CNC(=O)[C@H](CO)NC(=O)[C@H](CC(=O)O)NC(=O)[C@H](Cc1ccc(C(F)(F)F)cc1)NC(=O)[C@@H](NC(=O)[C@@H](N)[C@@H](C)O)C(C)C)C(=O)N[C@@H](CO)C(=O)N[C@@H](CCC(=O)O)C(=O)N[C@H](C(=O)N[C@@H](CCCNC(=N)N)C(=O)O)C(C)C [^19F-T6, reference compound] (H-TV[Phe(4-CF3)]DSGISEVR-OH) | – | 94% ± 1%
